The assay concerns mice. The assay is described as follows: Neuropharmacological Assay (SmartCube): automated behavioral signature of compound-treated mice compared with a database of reference drug classes. The class given is in vivo. The note with it: for MED / minimal effective dose: i.p., that dose is shown; for minimal effective dose: Mus musculus, ip. Put shortly:
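Compounds in N-methyl-2-pyrrolidone/polyethylene glycol/propylene glycol were given i.p. 15 min before testing, at 3 doses; values shown are for 3.0 mg/kg. Video-captured behaviour was matched by algorithm against reference drug classes, giving a probability per class. MED: lowest dose reaching ≥45% total activity.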

[1] abbreviates: SmartCube probability class, 3.0 mg/kg dose, i.p. 15 min before the behavioral test.
The mark [2] stands for this setting: SmartCube probability class, 3.0 mg/kg dose, i.p. 15 min before the behavioral test, hydrochloride, 3 mg/kg.
[3] abbreviates: minimal effective dose: dose having 45% or more total activity in SmartCube, if only one dose tested, read-out: MED.
[4] abbreviates: SmartCube class probability, 3.0 mg/kg i.p., 15 min before test.
Where [5] appears, read: probability that activity matches this class of agents, 3.0 mg/kg i.p., 15 min before test.
Where [6] appears, read: probability that activity matches this class of agents, 3.0 mg/kg i.p., 15 min before test, hydrochloride, 3 mg/kg.
The mark [7] stands for this setting: SmartCube class probability, 3.0 mg/kg i.p., 15 min before test, hydrochloride, 3 mg/kg.

From US20260274814A1, “THIENYL COMPOUNDS FOR THE TREATMENT OF A CENTRAL NERVOUS SYSTEM DISEASE OR DISORDER” (Coreterra Therapeutics, Inc., priority 2023, published 2026) come the findings set out here.

The structures appear in SMILES notation. Counter-ions that a name gives are not always drawn. Like-named read-outs stand apart in the source and are kept apart here.

On to `CNC1Cc2scc(C(F)(F)F)c2C1` (single isomer, unassigned) [Compound 315, N-methyl-3-(trifluoromethyl)-5,6-dihydro-4H-cyclopenta[b]thiophen-5-amine hydrochloride], for which, under setting [1], the AD result is reported as “ND (^ <4%)”, the AG entry is “ND (^ <4%)”, the AN entry is “ND (^ <4%)” and the CE entry was “ND (^ <4%)”. Moreover, under setting [1], the HL entry is “ND (^ <4%)”, the MS result is on record as “ND (^ <4%)”, the PS entry is “ND (^ <4%)” and the SH result is “ND (^ <4%)”. Moreover, under setting [2], the AP entry was “+ (≥4%)”, the AX entry is listed as “++++ (≥74%)” and the UK entry is listed as “ND (^ <4%)”. The MED (minimal effective dose: dose having 45% or more total activity in SmartCube, if only one dose was tested, hydrochloride) is listed as 3 mpk.

On to `CNC1COc2cc(C)sc2C1` (stereo not drawn) [Compound 181, N, 2-dimethyl-6,7-dihydro-5H-thieno[3,2-b]pyran-6-amine hydrochloride], for which, under setting [3], the minimal effective dose is greater than 3 mg/kg. For the same compound, under setting [4], the AD result is given as “ND (^ <4%)”, the AG result is recorded as “ND (^ <4%)”, the AN result is reported as “+ (≥4%)” and the AP result was “+ (≥4%)”. For the same compound, under setting [4], the AX result is given as “ND (^ <4%)”, the CE entry is given as “ND (^ <4%)”, the HL result is given as “ND (^ <4%)” and the MS entry is given as “ND (^ <4%)”. Also, under setting [4], the PS entry is “ND (^ <4%)”, the SH entry was “ND (^ <4%)” and the UK result was “ND (^ <4%)”.

Consider `CNC1CCc2c(C(F)(F)F)csc2C1` (stereo not drawn) [Compound 180, N-methyl-3-(trifluoromethyl)-4,5,6,7-tetrahydrobenzothiophen-6-amine hydrochloride], for which the minimal effective dose under setting [3] stood at 3 mg/kg. Moreover, under setting [4], the AD entry is reported as “ND (^ <4%)”, the AG entry is recorded as “ND (^ <4%)”, the AN result is listed as “ND (^ <4%)” and the AP result is “+++ (≥49%)”. Besides, under setting [4], the AX result is listed as “ND (^ <4%)”, the CE entry is “ND (^ <4%)”, the HL entry is on record as “ND (^ <4%)” and the MS entry is recorded as “ND (^ <4%)”. Under setting [4], the PS entry is given as “ND (^ <4%)”, the SH result is “ND (^ <4%)” and the UK result is recorded as “ND (^ <4%)”.

For the compound `CNC1CCc2csc(Cl)c2C1` (single isomer, unassigned) [Compound 55, 3-chloro-N-methyl-4,5,6,7-tetrahydro-2-benzothiophen-5-amine hydrochloride], the minimal effective dose (dose having 45% or more total activity in SmartCube, if only one dose was tested, read-out: MED (minimal effective dose)) was 1 mg/kg. Under setting [5], the AG result is “ND (^ <4%)”, the AP result is “++ (≥24%)”, the CE result was “ND (^ <4%)” and the HL result is recorded as “ND (^ <4%)”. Under setting [5], the MS result is reported as “ND (^ <4%)”, the PS result was “ND (^ <4%)”, the SH entry was “ND (^ <4%)” and the UK result was “ND (^ <4%)”. For the same compound, under setting [6], the AD result is recorded as “++ (≥24%)”, the AN result is reported as “ND (^ <4%)” and the AX entry is listed as “+ (≥4%)”.

On to `CNC1(C)CCc2c(csc2C)C1` (single isomer, unassigned) [Compound 150, N, 1,5-trimethyl-6,7-dihydro-4H-2-benzothiophen-5-amine hydrochloride], for which, under setting [4], the AD entry is listed as “ND (^ <4%)”, the AG result was “ND (^ <4%)”, the AN entry was “ND (^ <4%)” and the AP result was “ND (^ <4%)”. Further, under setting [4], the AX entry is “ND (^ <4%)”, the CE result was “ND (^ <4%)”, the MS entry was “ND (^ <4%)” and the SH result is given as “ND (^ <4%)”. In addition, under setting [4], the UK entry was “ND (^ <4%)”. Under setting [7], the HL result is on record as “+++ (≥49%)” and the PS entry is reported as “++ (≥24%)”. Under “minimal effective dose: dose having 45% or more total activity in SmartCube, if only one dose tested”, the MED was 3 mpk.
